# Measurements reported in patent US9982005B2, “Macrolides and methods of their preparation and use” (President and Fellows of Harvard College, priority 2013, dated 2018).
# Read-outs that look alike come from different tables or passages of the source.
# Legend:
# [1] = ester bond
# [2] = test system: BS1723 B. subtilis BS168 WT wild type; assay: broth dilution MIC, B. subtilis BS1723; type: cell-based; settings: Bacillus subtilis, BS1723 B. subtilis BS168 WT wild type; read-out: MIC
# Procedure, shortened: (§1)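 Broth dilution (CLSI standard) gave the minimum inhibitory concentrations. Resistance genotypes in the panel can be constitutive or inducible.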
# EC107 E. coli ATCC25922 = assay: broth dilution MIC, E. coli EC107; type: cell-based; settings: Escherichia coli, read-out: MIC
# Procedure, shortened: as §1
# [3] = test system: SA183 S. aureus ermA positive msrA unknown; assay: broth dilution MIC, S. aureus SA183; type: cell-based; settings: Staphylococcus aureus
# Procedure, shortened: as §1
# [4] = test system: SA101 S. aureus ATCC29213; assay: broth dilution MIC, S. aureus SA101; type: cell-based; settings: Staphylococcus aureus, ATCC29213, SA101 S. aureus ATCC29213; read-out: MIC
# Procedure, shortened: as §1
# [5] = test system: Spn160 S. pneumoniae ermB unknown mefA positive; assay: broth dilution MIC, S. pneumoniae Spn160; type: cell-based; settings: Streptococcus pneumoniae; Spn160 S. pneumoniae ermB unknown mefA positive; read-out: MIC
# Procedure, shortened: as §1
# S. aureus strains = assay: MIC against S. aureus strains (Table M7); type: cell-based; settings: for MIC: Staphylococcus aureus
# Procedure, shortened: as §1
# [6] = test system: SA557 S. aureus ermA unknown msrA positive; assay: broth dilution MIC, S. aureus SA557; type: cell-based; settings: Staphylococcus aureus; SA557 S. aureus ermA unknown msrA positive; read-out: MIC
# Procedure, shortened: as §1
# K. pneumoniae strains = assay: MIC against K. pneumoniae strains (Table M8); type: cell-based; settings: Klebsiella pneumoniae, K. pneumoniae 10031
# [7] = test system: SA418 S. aureus ermA negative msrA positive; assay: broth dilution MIC, S. aureus SA418; type: cell-based; settings: Staphylococcus aureus
# Procedure, shortened: as §1
# H. influenzae strains = assay: MIC against H. influenzae strains (Table M8); type: cell-based; settings: Haemophilus influenzae
# Procedure, shortened: as §1
# EC882 E. coli imp = assay: broth dilution MIC, E. coli EC882; type: cell-based; settings: Escherichia coli
# Procedure, shortened: as §1
# [8] = test system: SA1707 S. aureus ermA negative msrA positive; assay: broth dilution MIC, S. aureus SA1707; type: cell-based; settings: Staphylococcus aureus
# Procedure, shortened: as §1
# E. coli strains = assay: MIC against E. coli strains (Table M7); type: cell-based; settings: Escherichia coli, ATCC25922, E. coli ATCC 25922
# Procedure, shortened: as §1
# [9] = test system: HI175 H. influenzae ATCC49247; assay: broth dilution MIC, H. influenzae HI175; type: cell-based; settings: Haemophilus influenzae
# Procedure, shortened: as §1
# [10] = test system: SA506 S. aureus ermA positive msrA unknown; assay: broth dilution MIC, S. aureus SA506; type: cell-based; settings: Staphylococcus aureus
# Procedure, shortened: as §1
# [11] = test system: SA1708 S. aureus ermA positive msrA negative; assay: broth dilution MIC, S. aureus SA1708; type: cell-based; settings: Staphylococcus aureus
# Procedure, shortened: as §1
# E. faecalis strains = assay: MIC against E. faecalis strains (Table M8); type: cell-based
# [12] = test system: Spn1537 S. pneumoniae ermB positive mefA positive; assay: broth dilution MIC, S. pneumoniae Spn1537; type: cell-based; settings: Streptococcus pneumoniae
# Procedure, shortened: as §1
# [13] = test system: Spn1427 S. pneumoniae ermB positive mefA negative; assay: broth dilution MIC, S. pneumoniae Spn1427; type: cell-based; settings: Streptococcus pneumoniae
# Procedure, shortened: as §1
# [14] = test system: Spn1533 S. pneumoniae ermB positive mefA positive; assay: broth dilution MIC, S. pneumoniae Spn1533; type: cell-based; settings: Streptococcus pneumoniae
# Procedure, shortened: as §1
# HI281 H. influenzae = assay: broth dilution MIC, H. influenzae HI281; type: cell-based; settings: Haemophilus influenzae
# Text: We have collected MIC data for a total of 50 novel macrolides that this platform has produced against over 21 unique strains of B. subtilis, E. coli, S. aureus, S. pneumoniae, and H. influenzae, including several multidrug-resistant strains, with a special focus on macrolide resistant mechanisms (vide supra). Azithromycin was included as a control macrolide. CLSI standard procedures for broth dilution MIC determination were used. […] These genotypes can be constitutive or inducible. The finding that C4-epi (unnatural) isomers of the “azaketolide” macrolide class have enhanced activities relative to C4 natural isomers is very exciting.
# S. pneumoniae strains = assay: MIC against S. pneumoniae strains (Tables M7, M8); type: cell-based; settings: Streptococcus pneumoniae
# Text: CLSI standard procedures for broth dilution MIC determination were used. […] These genotypes can be constitutive or inducible.
# E. coli (MC4100) = assay: MIC, E. coli MC4100; type: cell-based; settings: Escherichia coli, round 2, read-out: MIC
# Procedure, shortened: as §1
# [15] = test system: Spn 106 S. pneumonia ATCC49619; assay: broth dilution MIC, S. pneumoniae Spn 106; type: cell-based; settings: Streptococcus pneumoniae, ATCC49619
# Procedure, shortened: as §1
# EC878 E. coli tolC = assay: broth dilution MIC, E. coli EC878; type: cell-based; settings: Escherichia coli
# Procedure, shortened: as §1
# [16] = test system: Spn1509 S. pneumoniae ermB positive mefA negative; assay: broth dilution MIC, S. pneumoniae Spn1509; type: cell-based; settings: Streptococcus pneumoniae
# Procedure, shortened: as §1
# BS1725 B. subtilis ermC = assay: broth dilution MIC, B. subtilis BS1725; type: cell-based; settings: Bacillus subtilis
# Procedure, shortened: as §1
# [17] = test system: S. aureus (Newman, clinical isolate); assay: MIC, S. aureus Newman; type: cell-based; settings: Staphylococcus aureus, S. aureus (Neuman, clinical isolate), round 2
# Procedure, shortened: as §1
# [18] = test system: panels of Gram-positive bacteria; settings: fluorine atom at position C2; cited from earlier work
smiles,measurement,setting,value
CC[C@H]1OC(=O)CC(=O)[C@H](C)[C@@H](O[C@@H]2OC(C)CC(N(C)C)C2OC(=O)OC)[C@](C)(OC)C[C@@H](C)CN[C@H](C)[C@H]2N(CCCCN=[N+]=[N-])C(=O)O[C@]12C (stereo partly drawn),"ring closure, yield of all isomers","[1]; from CC[C@@H](O)[C@@]1(C)OC(=O)N(CCCCN=[N+]=[N-])[C@@H]1[C@@H](C)NC[C@H](C)C[C@@](C)(OC)[C@H](O[C@@H]1OC(C)CC(N(C)C)C1OC(=O)OC)[C@@H](C)C(=O)CC(=O)OC(C)(C)C, benzene, 9.08 mM, 80.0 °C, 12.0 h",84%
CC[C@H]1OC(=O)[C@H](C)C(=O)[C@H](C)[C@@H](O[C@@H]2OC(C)CC(N(C)C)C2OC(=O)OC)[C@](C)(OC)C[C@@H](C)CN[C@H](C)[C@H]2N(CCCCN=[N+]=[N-])C(=O)O[C@]12C (stereo partly drawn),"ring closure, yield of all isomers","[1]; from CC[C@@H](O)[C@@]1(C)OC(=O)N(CCCCN=[N+]=[N-])[C@@H]1[C@@H](C)NC[C@H](C)C[C@@](C)(OC)[C@H](O[C@@H]1OC(C)CC(N(C)C)C1OC(=O)OC)[C@@H](C)C1=C(C)C(=O)OC(C)(C)O1, toluene, 3.97 mM, 111.0 °C, 40.0 h",92%
"CC[C@H]1OC(=O)[C@H](C)[C@@H](O[C@H]2C[C@@](C)(OC)[C@@H](O)[C@H](C)O2)[C@H](C)[C@@H](O[C@@H]2O[C@H](C)C[C@H](N(C)C)[C@H]2O)[C@](C)(O)C[C@@H](C)CN(C)[C@H](C)[C@@H](O)[C@]1(C)O [Azithromycin, reference compound]",MIC,[2],0.5 µg/mL
same,MIC,EC107 E. coli ATCC25922,4 µg/mL
same,MIC,[3],> 32 µg/mL
same,MIC,[4],1 to 2 µg/mL
same,MIC,[5],2 µg/mL
same,MIC S. aureus (ATCC 29213),S. aureus strains; S. aureus ATCC 29213,1 µg/mL
same,MIC,"S. aureus strains; ATCC29213, S. aureus ATCC 29213, read-out: MIC S. aureus (ATCC 29213)",2 µg/mL
same,MIC,"S. aureus strains; S. aureus 183, read-out: MIC S. aureus (183)",> 32 µg/mL
same,MIC,"S. aureus strains; S. aureus 506, read-out: MIC S. aureus (506)",> 32 µg/mL
same,MIC,"S. aureus strains; S. aureus 1708, read-out: MIC S. aureus (1708)",> 32 µg/mL
same,MIC,"S. aureus strains; USA300, S. aureus USA300, read-out: MIC S. aureus (USA300)",> 32 µg/mL
same,MIC,[6],> 32 µg/mL
same,MIC,K. pneumoniae strains,2 µg/mL
same,MIC,[7],> 32 µg/mL
same,MIC,"H. influenzae strains; H. influenzae 49247, read-out: MIC H. influenzae (49247)",0.25 µg/mL
same,MIC,"H. influenzae strains; H. influenzae 49766, read-out: MIC H. influenzae (49766)",2 µg/mL
same,MIC,EC882 E. coli imp,0.0625 µg/mL
same,MIC,[8],> 32 µg/mL
same,MIC,E. coli strains,8 µg/mL
same,MIC,[9],2 µg/mL
same,MIC,[10],> 32 µg/mL
same,MIC,[11],> 32 µg/mL
same,MIC E. faecalis (29212),E. faecalis strains,16 µg/mL
same,MIC,"E. faecalis strains; Enterococcus faecalis, E. faecalis 29212",8 µg/mL
same,MIC,[12],> 32 µg/mL
same,MIC,[13],> 32 µg/mL
same,MIC,[14],> 32 µg/mL
same,MIC,HI281 H. influenzae,4 µg/mL
same,MIC,"S. pneumoniae strains; S. pneumoniae 160, read-out: MIC S. pneumonae (160)",2 µg/mL
same,MIC,"S. pneumoniae strains; S. pneumoniae 1509, read-out: MIC S. pneumoniae (1509)",> 32 µg/mL
same,MIC,"S. pneumoniae strains; S. pneumoniae 1533, read-out: MIC S. pneumoniae (1533)",> 32 µg/mL
same,MIC,"S. pneumoniae strains; S. pneumoniae 1537, read-out: MIC S. pneumoniae (1537)",> 32 µg/mL
same,MIC,E. coli (MC4100),8 µg/mL
same,MIC,[15],0.0625 µg/mL
same,MIC,EC878 E. coli tolC,0.5 µg/mL
same,MIC,[16],> 32 µg/mL
same,MIC,BS1725 B. subtilis ermC; BS1725 B. subtilis ermC (+ery),> 32 µg/mL
same,MIC,BS1725 B. subtilis ermC; BS1725 B. subtilis ermC (−ery),> 32 µg/mL
same,MIC,[17],1 µg/mL
CC[C@H]1OC(=O)[C@@](C)(F)C(=O)[C@H](C)[C@@H](O[C@@H]2O[C@H](C)C[C@H](N(C)C)[C@H]2O)[C@](C)(OC)C[C@@H](C)C(=O)[C@H](C)[C@H]2N(CCCCn3cc(-c4cccc(N)c4)nn3)C(=O)O[C@]12C [solithromycin],increase in activity versus the non-fluorinated molecule,[18],4- to 16 fold
